Laboratory results reported in ChEMBL document CHEMBL2069188, “Structural requirements for the antitubercular quaternized triflupromazine pharmacophore” (Bioorg Med Chem Lett, 2012).
In brackets after ≈: the same amount, converted by molar mass.

These compounds were tested on Mycobacterium tuberculosis (assay: Antitubercular activity against highly drug-resistant, non replicating, persistent Mycobacterium tuberculosis harboring Vibrio harveyii luciferase gene incubated under anaerobic condition measured after 28 hrs of aerobic recovery by LORA method).
Assay type: functional
Work on C[N+](C)(CCCN1c2ccccc2Sc2ccc(C(F)(F)F)cc21)Cc1ccc(Cl)cc1.[Cl-] yielded an MIC90 of 7.8 µM.
C[N+](C)(CCCN1c2ccccc2Sc2ccc(C(F)(F)F)cc21)Cc1ccc(Br)cc1.[Br-] gave an MIC90 of 7.1 µM.
With CO[C@H]1/C=C/O[C@@]2(C)Oc3c(C)c(O)c4c(O)c(c(/C=N/N5CCN(C)CC5)c(O)c4c3C2=O)NC(=O)/C(C)=C\C=C\[C@H](C)[C@H](O)[C@@H](C)[C@@H](O)[C@@H](C)[C@H](OC(C)=O)[C@@H]1C [RIFAMPIN] the MIC90 was 0.61 µM (≈ 0.502 µg/mL).
C[N+](C)(CCCN1c2ccccc2Sc2ccc(C(F)(F)F)cc21)Cc1ccc(F)cc1.[Cl-] showed an MIC90 of 14.3 µM.
With FC(F)(F)c1ccc2c(c1)N(Cc1cn(Cc3ccc(Cl)cc3)nn1)c1ccccc1S2 the MIC90 was > 100 µM.
C[N+](C)(CCCN1c2ccccc2Sc2ccc(C(F)(F)F)cc21)Cc1ccc(I)cc1.[Br-] was tested, and the MIC90 was 7.2 µM.
